Measured values as given in publication PMC5399447, “Neuroprotective pentapeptide CN-105 is associated with reduced sterile inflammation and improved functional outcomes in a traumatic brain injury murine model” (Scientific Reports, 2017).

Test system: 84 genes related to inflammatory and autoimmune processes
Assay: Mouse Inflammatory Response and Autoimmunity PCR Array, whole brain
Type: in vivo
Experimental: Frozen, pulverized whole brain tissue was processed for RNA extraction from a separate cohort of treated and untreated injured animals on days 1 post-injury(CN-105, n = 4; vehicle, n = 3; Control(sham-operated), n = 3). Total RNA was extracted from frozen, pulverized whole brain tissue using RNeasy Lipid Tissue Mini Kit(Qiagen, Valencia, CA). RNA quantity and quality was assessed with the NanoDrop ND-1000 spectrophotometer(NanoDrop Technologies, Inc., Wilmington, DE) and by agarose gel electrophoresis. Only samples with a 260/280 ratio between 1.9–2.1, and a 260/230 ratio greater than 2.0, were further processed. First strand complementary DNA(cDNA) was generated from 2 μg total RNA using the RT[2] First strand kit(SABiosciences, Frederick, MD.)
Gene expression was measured using the Mouse Inflammatory Response and Autoimmunity PCR Array(SABiosciences, Frederick, MD), which profiles the expression of 84 genes related to inflammatory and autoimmune processes. RT-PCR was performed according to manufacturer’s instructions Quality of the cDNA and PCR efficiency was verified by housekeeping genes and RT-PCR controls included in the PCR Array.
Raw RT-PCR data were analyzed using the Web-Based PCR Array Data Analysis software(SABiosciences). ΔCt values and ΔΔCt - based fold-change were calculated from raw threshold cycle data, using beta-actin and glyceraldehyde 3-phosphate dehydrogenase(GAPDH) as internal standards for normalization. Fold changes were then normalized against sham-operated controls.

[1] = TBI + CN-105 0.05 mg/kg iv 2 h post injury, brain 24 h
[2] = TBI CN-105 vs TBI vehicle, brain 24 h post TBI

Ac-VSRRR-amide [CN-105]
Bcl6 ΔCt value, TBI-CN-105 [1]: 5.7E − 01 | C3ar1 ΔCt value, TBI-CN-105 [1]: 1.2E − 01 | C3 ΔCt value, TBI-CN-105 [1]: 1.9E − 03 | C4b ΔCt value, TBI-CN-105 [1]: 5.9E − 01 | Ccl1 ΔCt value, TBI-CN-105 [1]: 9.1E − 01 | Ccl2 ΔCt value, TBI-CN-105 [1]: 2.5E − 02 | Ccl3 ΔCt value, TBI-CN-105 [1]: 8.9E − 03 | Ccl4 ΔCt value, TBI-CN-105 [1]: 1.2E − 02 | Ccl5 ΔCt value, TBI-CN-105 [1]: 3.4E − 03 | Ccl7 ΔCt value, TBI-CN-105 [1]: 3.7E − 03 | Ccl8 ΔCt value, TBI-CN-105 [1]: 4.2E − 03 | Ccl11 ΔCt value, TBI-CN-105 [1]: 1.8E − 01 | Ccl12 ΔCt value, TBI-CN-105 [1]: 1.3E − 02 | Ccl17 ΔCt value, TBI-CN-105 [1]: 1.0E − 03 | Ccl19 ΔCt value, TBI-CN-105 [1]: 3.4E − 03 | Ccl20 ΔCt value, TBI-CN-105 [1]: 7.9E − 02 | Ccl22 ΔCt value, TBI-CN-105 [1]: 2.2E − 02 | Ccl24 ΔCt value, TBI-CN-105 [1]: 5.1E − 03 | Ccl25 ΔCt value, TBI-CN-105 [1]: 9.5E − 02 | Ccr1 ΔCt value, TBI-CN-105 [1]: 3.0E − 04 | Ccr2 ΔCt value, TBI-CN-105 [1]: 1.5E − 03 | Ccr3 ΔCt value, TBI-CN-105 [1]: 1.1E − 01 | Ccr4 ΔCt value, TBI-CN-105 [1]: 3.1E − 02 | Ccr7 ΔCt value, TBI-CN-105 [1]: 3.4E − 02 | Cd40lg ΔCt value, TBI-CN-105 [1]: 4.2E − 03 | Cd40 ΔCt value, TBI-CN-105 [1]: 2.1E − 02 | Cebpb ΔCt value, TBI-CN-105 [1]: 2.4E − 01 | Crp ΔCt value, TBI-CN-105 [1]: 7.1E − 04 | Csf1 ΔCt value, TBI-CN-105 [1]: 1.2E − 02 | Cxcl1 ΔCt value, TBI-CN-105 [1]: 1.8E − 03 | Cxcl2 ΔCt value, TBI-CN-105 [1]: 1.7E − 03 | Cxcl3 ΔCt value, TBI-CN-105 [1]: 1.6E + 00 | Cxcl5 ΔCt value, TBI-CN-105 [1]: 1.4E + 00 | Cxcl9 ΔCt value, TBI-CN-105 [1]: 2.2E − 03 | Cxcl10 ΔCt value, TBI-CN-105 [1]: 5.3E − 04 | Cxcl11 ΔCt value, TBI-CN-105 [1]: 8.8E − 03 | Cxcr4 ΔCt value, TBI-CN-105 [1]: 9.0E − 02 | Fasl ΔCt value, TBI-CN-105 [1]: 6.7E − 04 | Flt3l ΔCt value, TBI-CN-105 [1]: 7.1E − 04 | Fos ΔCt value, TBI-CN-105 [1]: 1.7E − 01 | Hdac4 ΔCt value, TBI-CN-105 [1]: 8.3E − 01 | Ifng ΔCt value, TBI-CN-105 [1]: 4.3E − 03 | Il1a ΔCt value, TBI-CN-105 [1]: 5.4E − 02 | Il1b ΔCt value, TBI-CN-105 [1]: 4.6E − 01 | Il1f10 ΔCt value, TBI-CN-105 [1]: 5.5E − 03 | Il1r1 ΔCt value, TBI-CN-105 [1]: 7.5E − 04 | Il1rap ΔCt value, TBI-CN-105 [1]: 8.2E − 04 | Il1rn ΔCt value, TBI-CN-105 [1]: 1.7E − 03 | Il6ra ΔCt value, TBI-CN-105 [1]: 1.6E − 01 | Il6 ΔCt value, TBI-CN-105 [1]: 1.8E − 03 | Il7 ΔCt value, TBI-CN-105 [1]: 5.9E − 01 | Il8ra ΔCt value, TBI-CN-105 [1]: 2.6E − 03 | Il8rb ΔCt value, TBI-CN-105 [1]: 5.4E − 03 | Il9 ΔCt value, TBI-CN-105 [1]: 1.4E − 02 | Il10rb ΔCt value, TBI-CN-105 [1]: 2.2E − 02 | Il10 ΔCt value, TBI-CN-105 [1]: 1.6E − 03 | Il18rap ΔCt value, TBI-CN-105 [1]: 6.6E − 03 | Il18 ΔCt value, TBI-CN-105 [1]: 9.6E − 03 | Il22ra2 ΔCt value, TBI-CN-105 [1]: 8.2E − 02 | Il22 ΔCt value, TBI-CN-105 [1]: 3.4E − 03 | Il23a ΔCt value, TBI-CN-105 [1]: 2.3E − 02 | Il23r ΔCt value, TBI-CN-105 [1]: 8.0E − 04 | Itgb2 ΔCt value, TBI-CN-105 [1]: 5.3E − 02 | Kng1 ΔCt value, TBI-CN-105 [1]: 8.5E − 03 | Lta ΔCt value, TBI-CN-105 [1]: 1.1E − 01 | Ltb ΔCt value, TBI-CN-105 [1]: 3.9E − 02 | Ly96 ΔCt value, TBI-CN-105 [1]: 7.7E − 02 | Myd88 ΔCt value, TBI-CN-105 [1]: 6.6E − 03 | Nfatc3 ΔCt value, TBI-CN-105 [1]: 3.2E + 00 | Nfkb1 ΔCt value, TBI-CN-105 [1]: 5.3E − 03 | Nos2 ΔCt value, TBI-CN-105 [1]: 1.6E − 01 | Nr3c1 ΔCt value, TBI-CN-105 [1]: 1.2E − 02 | Ripk2 ΔCt value, TBI-CN-105 [1]: 2.1E − 01 | Tirap ΔCt value, TBI-CN-105 [1]: 5.3E − 02 | Tlr1 ΔCt value, TBI-CN-105 [1]: 7.4E − 03 | Tlr2 ΔCt value, TBI-CN-105 [1]: 9.1E − 03 | Tlr3 ΔCt value, TBI-CN-105 [1]: 5.8E − 02 | Tlr4 ΔCt value, TBI-CN-105 [1]: 2.0E − 02 | Tlr5 ΔCt value, TBI-CN-105 [1]: 1.7E − 03 | Tlr6 ΔCt value, TBI-CN-105 [1]: 7.0E − 03 | Tlr7 ΔCt value, TBI-CN-105 [1]: 9.1E − 01 | Tnf ΔCt value, TBI-CN-105 [1]: 3.8E − 02 | Tnfsf14 ΔCt value, TBI-CN-105 [1]: 9.0E − 03 | Tollip ΔCt value, TBI-CN-105 [1]: 5.1E − 02 | Bcl6 Fold Change [2]: 921 | C3 Fold Change [2]: 1.5 | C3ar1 Fold Change [2]: −3.1 | C4b Fold Change [2]: −1.1 | Ccl1 Fold Change [2]: 1.5 | Ccl2 Fold Change [2]: −2.6 | Ccl3 Fold Change [2]: 1.5 | Ccl4 Fold Change [2]: −2.6 | Ccl5 Fold Change [2]: −1.6 | Ccl7 Fold Change [2]: −1.2 | Ccl8 Fold Change [2]: 31.2 | Ccl11 Fold Change [2]: −3.6 | Ccl12 Fold Change [2]: 64.2 | Ccl17 Fold Change [2]: −1.7 | Ccl19 Fold Change [2]: −5.2 | Ccl20 Fold Change [2]: −1.5 | Ccl22 Fold Change [2]: 60.2
